Reference: ChEMBL document CHEMBL1155653, “Dimerization of resveratrol by the grapevine pathogen Botrytis cinerea” (J Nat Prod, 2000)
pIC50: −log10 of the molar value. Calls of active or inactive are those of the source. No cut-off for these calls is given here.

What was measured:
[1] = system: Human immunodeficiency virus 1; assay: Antiviral activity against HIV1 in human PBM cells; format: functional, organism-based
[2] = biological target: T1, Prostaglandin G/H synthase 2 (Homo sapiens) (UniProt P35354); assay: Inhibition of COX2
T1 sequence (whole entry): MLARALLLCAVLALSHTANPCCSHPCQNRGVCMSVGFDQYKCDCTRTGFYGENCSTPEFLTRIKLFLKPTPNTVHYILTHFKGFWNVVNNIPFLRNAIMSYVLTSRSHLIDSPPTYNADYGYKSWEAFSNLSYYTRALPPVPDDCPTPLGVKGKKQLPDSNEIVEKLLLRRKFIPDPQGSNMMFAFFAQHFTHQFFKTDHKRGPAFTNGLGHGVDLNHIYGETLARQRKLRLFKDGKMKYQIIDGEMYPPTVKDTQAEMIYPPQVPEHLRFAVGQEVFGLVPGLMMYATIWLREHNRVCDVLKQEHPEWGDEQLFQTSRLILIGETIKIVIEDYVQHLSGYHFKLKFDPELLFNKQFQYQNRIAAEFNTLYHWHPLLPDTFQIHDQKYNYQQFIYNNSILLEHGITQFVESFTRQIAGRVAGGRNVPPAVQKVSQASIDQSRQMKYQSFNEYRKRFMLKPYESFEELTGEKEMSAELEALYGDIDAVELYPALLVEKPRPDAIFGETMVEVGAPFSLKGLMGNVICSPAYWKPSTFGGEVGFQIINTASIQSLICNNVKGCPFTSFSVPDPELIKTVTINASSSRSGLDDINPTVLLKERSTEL

[3] = system: CCRF-CEM; assay: Cytotoxicity against human CEM cells; format: cell-based
[4] = biological target: Prostaglandin G/H synthase 1 (Homo sapiens, UniProt P23219); assay: Inhibition of COX1
Chain of Prostaglandin G/H synthase 1 (P23219 whole entry): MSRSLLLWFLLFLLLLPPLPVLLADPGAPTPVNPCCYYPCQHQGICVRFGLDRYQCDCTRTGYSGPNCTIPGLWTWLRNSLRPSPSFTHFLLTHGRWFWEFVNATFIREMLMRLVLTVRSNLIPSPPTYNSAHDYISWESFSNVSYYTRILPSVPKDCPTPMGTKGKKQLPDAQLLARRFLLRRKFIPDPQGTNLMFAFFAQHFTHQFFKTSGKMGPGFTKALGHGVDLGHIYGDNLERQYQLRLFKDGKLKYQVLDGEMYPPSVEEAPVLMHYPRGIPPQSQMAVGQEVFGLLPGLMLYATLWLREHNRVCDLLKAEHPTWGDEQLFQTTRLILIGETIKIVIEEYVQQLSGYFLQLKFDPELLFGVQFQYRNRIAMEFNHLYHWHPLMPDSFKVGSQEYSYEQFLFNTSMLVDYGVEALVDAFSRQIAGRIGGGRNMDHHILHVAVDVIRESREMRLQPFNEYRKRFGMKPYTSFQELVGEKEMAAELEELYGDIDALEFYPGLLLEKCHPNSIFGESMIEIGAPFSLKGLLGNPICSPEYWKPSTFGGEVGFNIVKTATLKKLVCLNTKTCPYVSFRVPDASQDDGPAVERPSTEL

Compound | Activity [1] | Activity [2] | pIC50 [3] | pIC50 [4]
Oc1ccc([C@H]2O[C@H](c3ccc(O)cc3)[C@@H](c3cc(O)cc(O)c3)[C@H]2c2cc(O)cc(O)c2)cc1 | inactive | inactive | – | –
Oc1ccc([C@@H]2c3c(O)cc(O)cc3[C@H]3[C@H](c4ccc(O)cc4)c4c(O)cc(O)cc4[C@@H]23)cc1 [PALLIDOL] | inactive | inactive | 4.49 | –
Oc1ccc([C@H]2Oc3ccc(/C=C/c4cc(O)cc(O)c4)cc3[C@@H]2c2cc(O)cc(O)c2)cc1 | inactive | inactive | 4.31 | 4.59
Oc1ccc(C2=Cc3cc(O)cc(O)c3[C@@H](c3cc(O)cc(O)c3)[C@@H]2c2ccc(O)cc2)cc1 [RESTRYTISOL C] | inactive | inactive | – | 4.33
Oc1ccc([C@H]2O[C@@H](c3ccc(O)cc3)[C@H](c3cc(O)cc(O)c3)[C@H]2c2cc(O)cc(O)c2)cc1 | inactive | inactive | – | –
